In patent US12521393B2, “Cytotoxicity targeting chimeras for CCR2-expressing cells” (GLAXOSMITHKLINE INTELLECTUAL PROPERTY DEVELOPMENT LIMITED, priority 2021, dated 2026):

Experiments:
[1] = test system: endogenous target monocytes in human PBMC; experiment: PBMC ex vivo monocyte depletion flow cytometry assay (Example 200); assay type: cell-based; settings: with anti-cotinine antibody (SEQ ID NO: 11/12), 18-24 hours, EC50 in molar, read-out: Ex Vivo Depletion Assay pEC50 (converted)
Method in brief: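 Monocyte depletion is reported as pEC50, averaged or given individually across runs, and read by flow cytometry staining CD45, CD14 and CD4 with a viability dye. Compounds, diluted four-fold over 11 points from 1 mM DMSO stocks, were combined with 30 μg/mL Fc-enhanced anti-cotinine antibody and human PBMC, then incubated 18-24 h at 37° C.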

[2] = test system: CCR2 expressing cells (CD11b+Ly6c+Hi) in peripheral blood; experiment: In vivo depletion assay, flow cytometry of peripheral blood (Example 201); design: species or system human CCR2 knock-in mice (C57 background); settings: hCCR2 knock-in mice, IV 0.1 mpk compound + 10 mpk anti-cotinine antibody (SEQ ID NO: 13/14), peripheral blood at 48 hr
Method in brief: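 Mice dosed with compound formulated in saline/DMSO/PBS, with anti-cotinine antibody (rabbit variable region, mouse IgG2a Fc) where required, pre-incubated 30 min at room temperature. Terminal peripheral blood RBC-lysed, Fc-blocked, stained for CD45, CD3, CD11b, Ly6C, human CCR2 and 7AAD; percent depletion of CD11b+Ly6c+Hi cells determined by flow cytometry.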

[3] = target: anti-cotinine antibody (SEQ ID NO: 11/12, rabbit variable region with human IgG1 Fc DE mutation); experiment: SPR binding of anti-cotinine antibody to ARM compounds, Biacore T200, 37° C. (Example 202); settings: SPR Biacore T200, 37° C., pH 7.4, antibody SEQ ID NO: 11/12 captured on protein A; Kd in molar
Method in brief: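 Antibody captured on a protein A chip; ARM compounds injected at 100 μL/min (200 s association, 2000 s dissociation), 3-fold 5-point series from 200 nM, at 37 °C in HEPES pH 7.4 buffer with 0.005% P20 and 1% DMSO. Double-referenced sensorgrams fit 1:1 for kon, koff, Kd (koff/kon), residence time (1/koff); pKd averaged across runs.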

SMILES	EC50 [1]	% Depletion of CCR2 expressing cells [2]	pKd of Antibody for ARM Compound of Formula (I) [3]
CC(C)N(C)[C@@H]1CC[C@H](N2CC[C@H](Nc3ncnc4ccc(C(F)(F)F)cc34)C2=O)[C@H](NC(=O)[C@H]2CC[C@@H](NC(=O)CCOCCNC(=O)COCCNC(=O)[C@H]3CC(=O)N(C)[C@@H]3c3cccnc3)CC2)C1 [Example 98, (2S,3S)-N-(2-(2-((2-(3-(((1S,4s)-4-(((1R,2S,5R)-5-(Isopropyl(methyl)amino)-2-((S)-2-oxo-3-((6-(trifluoromethyl)quinazolin-4-yl)amino)pyrrolidin-1-yl)cyclohexyl)carbamoyl)cyclohexyl)amino)-3-oxopropoxy)ethyl)amino)-2-oxoethoxy)ethyl)-1-methyl-5-oxo-2-(pyridin-3-yl)pyrrolidine-3-carboxamide]	0.398 nM	88%	9.0095
CC(C)N(C)[C@@H]1CC[C@H](N2CC[C@H](Nc3ncnc4ccc(C(F)(F)F)cc34)C2=O)[C@H](NC(=O)CCOCCNC(=O)[C@H]2CC[C@H](NC(=O)COCCNC(=O)[C@H]3CC(=O)N(C)[C@@H]3c3cccnc3)CC2)C1 [Example 108, (2S,3S)-N-(2-(2-(((1R,4S)-4-((2-(3-(((1R,2S,5R)-5-(Isopropyl(methyl)amino)-2-((S)-2-oxo-3-((6-(trifluoromethyl)quinazolin-4-yl)amino)pyrrolidin-1-yl)cyclohexyl)amino)-3-oxopropoxy)ethyl)carbamoyl)cyclohexyl)amino)-2-oxoethoxy)ethyl)-1-methyl-5-oxo-2-(pyridin-3-yl)pyrrolidine-3-carboxamide]	0.398 nM	93%	8.9855
CC(C)N(C)[C@@H]1CC[C@H](N2CC[C@H](Nc3ncnc4ccc(C(F)(F)F)cc34)C2=O)[C@H](NC(=O)CCOCCOCCNC(=O)NCCOCCOCCNC(=O)[C@H]2CC(=O)N(C)[C@@H]2c2cccnc2)C1 [Example 119, (2S,3S)-N-(20-(((1R,2S,5R)-5-(Isopropyl(methyl)amino)-2-((S)-2-oxo-3-((6-(trifluoromethyl)quinazolin-4-yl)amino)pyrrolidin-1-yl)cyclohexyl)amino)-10,20-dioxo-3,6,14,17-tetraoxa-9,11-diazaicosyl)-1-methyl-5-oxo-2-(pyridin-3-yl)pyrrolidine-3-carboxamide]	1.58 nM	77%	9.1735
CC(C)N(C)[C@@H]1CC[C@H](N2CC[C@H](Nc3ncnc4ccc(C(F)(F)F)cc34)C2=O)[C@H](NC(=O)[C@H]2CC[C@H](NC(=O)CCCOCCCCOCCNC(=O)[C@H]3CC(=O)N(C)[C@@H]3c3cccnc3)CC2)C1 [Example 121, (2S,3S)-N-(2-(4-(4-(((1R,4r)-4-(((1R,2S,5R)-5-(Isopropyl(methyl)amino)-2-((S)-2-oxo-3-((6-(trifluoromethyl)quinazolin-4-yl)amino)pyrrolidin-1-yl)cyclohexyl)carbamoyl)cyclohexyl)amino)-4-oxobutoxy)butoxy)ethyl)-1-methyl-5-oxo-2-(pyridin-3-yl)pyrrolidine-3-carboxamide]	1.26 nM	69%	9.332
CC(C)N(C)[C@@H]1CC[C@H](N2CC[C@H](Nc3ncnc4ccc(C(F)(F)F)cc34)C2=O)[C@H](NC(=O)CCNC2CCC3(CC2)CCN(CCCNC(=O)[C@H]2CC(=O)N(C)[C@@H]2c2cccnc2)CC3)C1 [Example 138, (2S,3S)-N-(3-(9-((3-(((1R,2S,5R)-5-(Isopropyl(methyl)amino)-2-((S)-2-oxo-3-((6-(trifluoromethyl)quinazolin-4-yl)amino)pyrrolidin-1-yl)cyclohexyl)amino)-3-oxopropyl)amino)-3-azaspiro[5.5]undecan-3-yl)propyl)-1-methyl-5-oxo-2-(pyridin-3-yl)pyrrolidine-3-carboxamide]	0.158 nM	74.67%	9.0865
CC(C)N(C)[C@@H]1CC[C@H](N2CC[C@H](Nc3ncnc4ccc(C(F)(F)F)cc34)C2=O)[C@H](NC(=O)[C@H]2CC[C@@H](NC(=O)COCCNC(=O)CCOCCNC(=O)[C@H]3CC(=O)N(C)[C@@H]3c3cccnc3)CC2)C1 [Example 152, (2S,3S)-N-(2-(3-((2-(2-(((1S,4s)-4-(((1R,2S,5R)-5-(Isopropyl(methyl)amino)-2-((S)-2-oxo-3-((6-(trifluoromethyl)quinazolin-4-yl)amino)pyrrolidin-1-yl)cyclohexyl)carbamoyl)cyclohexyl)amino)-2-oxoethoxy)ethyl)amino)-3-oxopropoxy)ethyl)-1-methyl-5-oxo-2-(pyridin-3-yl)pyrrolidine-3-carboxamide]	1.26 nM	82%	9.111
CC(C)N(C)[C@@H]1CC[C@H](N2CC[C@H](Nc3ncnc4ccc(C(F)(F)F)cc34)C2=O)[C@H](NC(=O)C2CCN(C3CCN(C(=O)CCCCCCCCCNC(=O)[C@@H]4CC(=O)N(C)[C@H]4c4cccnc4)CC3)CC2)C1 [Example 157, N-((1R,2S,5R)-5-(Isopropyl(methyl)amino)-2-((S)-2-oxo-3-((6-(trifluoromethyl)quinazolin-4-yl)amino)pyrrolidin-1-yl)cyclohexyl)-1′-(10-((2R,3R)-1-methyl-5-oxo-2-(pyridin-3-yl)pyrrolidine-3-carboxamido)decanoyl)-[1,4′-bipiperidine]-4-carboxamide]	0.631 nM	79%	10.135
CC(C)N(C)[C@@H]1CC[C@H](N2CC[C@H](Nc3ncnc4ccc(C(F)(F)F)cc34)C2=O)[C@H](NC(=O)CCOCCNC(=O)COCCNC(=O)CCOCCNC(=O)[C@H]2CC(=O)N(C)[C@@H]2c2cccnc2)C1 [Example 163, (2S,3S)-N-(19-(((1R,2S,5R)-5-(Isopropyl(methyl)amino)-2-((S)-2-oxo-3-((6-(trifluoromethyl)quinazolin-4-yl)amino)pyrrolidin-1-yl)cyclohexyl)amino)-6,12,19-trioxo-3,10,16-trioxa-7,13-diazanonadecyl)-1-methyl-5-oxo-2-(pyridin-3-yl)pyrrolidine-3-carboxamide]	0.871 nM	89%	9.07
CC(C)N(C)[C@@H]1CC[C@H](N2CC[C@H](Nc3ncnc4ccc(C(F)(F)F)cc34)C2=O)[C@H](NC(=O)CCCNc2c(NCCOCCOCCOCCOCCNC(=O)[C@H]3CC(=O)N(C)[C@@H]3c3cccnc3)c(=O)c2=O)C1 [Example 164, (2S,3S)-N-(14-((2-((4-(((1R,2S,5R)-5-(Isopropyl(methyl)amino)-2-((S)-2-oxo-3-((6-(trifluoromethyl)quinazolin-4-yl)amino)pyrrolidin-1-yl)cyclohexyl)amino)-4-oxobutyl)amino)-3,4-dioxocyclobut-1-en-1-yl)amino)-3,6,9,12-tetraoxatetradecyl)-1-methyl-5-oxo-2-(pyridin-3-yl)pyrrolidine-3-carboxamide]	1 nM	86%	9.3225
CC(C)N(C)[C@@H]1CC[C@H](N2CC[C@H](Nc3ncnc4ccc(C(F)(F)F)cc34)C2=O)[C@H](NC(=O)CCOCCOCCOCCNc2c(NCCCNC(=O)[C@H]3CC(=O)N(C)[C@@H]3c3cccnc3)c(=O)c2=O)C1 [Example 169, (2S,3S)-N-(3-((2-((2-(2-(2-(3-(((1R,2S,5R)-5-(Isopropyl(methyl)amino)-2-((S)-2-oxo-3-((6-(trifluoromethyl)quinazolin-4-yl)amino)pyrrolidin-1-yl)cyclohexyl)amino)-3-oxopropoxy)ethoxy)ethoxy)ethyl)amino)-3,4-dioxocyclobut-1-en-1-yl)amino)propyl)-1-methyl-5-oxo-2-(pyridin-3-yl)pyrrolidine-3-carboxamide]	0.251 nM	87%	9.0085
CC(C)N(C)[C@@H]1CC[C@H](N2CC[C@H](Nc3ncnc4ccc(C(F)(F)F)cc34)C2=O)[C@H](NC(=O)CCCC(=O)NCCCOCCCNC(=O)CCCNC(=O)[C@H]2CC(=O)N(C)[C@@H]2c2cccnc2)C1 [Example 173, N^1-((1R,2S,5R)-5-(Isopropyl(methyl)amino)-2-((S)-2-oxo-3-((6-(trifluoromethyl)quinazolin-4-yl)amino)pyrrolidin-1-yl)cyclohexyl)-N5-(3-(3-(4-((2S,3S)-1-methyl-5-oxo-2-(pyridin-3-yl)pyrrolidine-3-carboxamido)butanamido)propoxy)propyl)glutaramide]	0.794 nM	91%	9.1415
